Values after ≈ are worked out from the molar mass of the structure shown. Where a SMILES comes first, the peptide text is derived from it.
Columns and labels:
Assay type in all cases: cell-based
E. coli J2210 = conditions: J2210, 1 h
E. coli JJ2489 = conditions: JJ2489, 1 h
[1] = test system: Salmonella enterica serovar Enteritidis MH91989; conditions: serovar Enteritidis MH91989, 1 h
E. coli JW0013 = conditions: JW0013, 1 h
[2] = test system: Salmonella enterica serovar Typhimurium ATCC SL1344; conditions: ATCC SL1344, 1 h

With CC(C)C[C@H](NC(=O)[C@H](CCCNC(=N)N)NC(=O)[C@@H]1CCCN1C(=O)[C@H](CCCNC(=N)N)NC(=O)[C@@H]1CCCN1C(=O)[C@@H]1CCCN1C(=O)[C@H](CCCNC(=N)N)NC(=O)[C@@H]1CCCN1C(=O)[C@H](CCC(N)=O)NC(=O)[C@@H]1CCCN1C(=O)[C@H](CCCNC(=N)N)NC(=O)[C@H](Cc1ccc(O)cc1)NC(=O)[C@@H](NC(=O)[C@@H]1CCCN1C(=O)[C@H](CCCCN)NC(=O)[C@H](CC(N)=O)NC(=O)[C@H](CC(N)=O)NC(=O)CN)C(C)C)C(=O)O [Api_R4K/I8R/H15R] (H-GNNKPVYRPQPRPPRPRL-OH) the MIC (E. coli J2210) was 0.252 ± 0.087 µM (≈ 0.54 µg/mL), the MIC (E. coli JJ2489) was 0.133 ± 0.061 µM (≈ 0.285 µg/mL) and the MIC [1] was 0.096 ± 0.023 µM (≈ 0.206 µg/mL).
Work on CC(C)C[C@H](NC(=O)[C@H](CCCNC(=N)N)NC(=O)[C@@H]1CCCN1C(=O)[C@H](CCCNC(=N)N)NC(=O)[C@@H]1CCCN1C(=O)[C@@H]1CCCN1C(=O)[C@H](CCCNC(=N)N)NC(=O)[C@@H]1CCCN1C(=O)[C@H](CCC(N)=O)NC(=O)[C@@H]1CCCN1C(=O)[C@H](CCCCN)NC(=O)[C@H](Cc1ccc(O)cc1)NC(=O)[C@@H](NC(=O)[C@@H]1CCCN1C(=O)[C@H](CCCNC(=N)N)NC(=O)[C@H](CC(N)=O)NC(=O)[C@H](CC(N)=O)NC(=O)CN)C(C)C)C(=O)O [Api_I8K/H15R] (H-GNNRPVYKPQPRPPRPRL-OH) yielded an MIC (E. coli JW0013) of 0.062 ± 0.027 µM (≈ 0.133 µg/mL), an MIC (E. coli J2210) of 0.252 ± 0.087 µM (≈ 0.54 µg/mL) and an MIC [1] of 0.096 ± 0.023 µM (≈ 0.206 µg/mL). The MIC [2] was 0.192 ± 0.044 µM (≈ 0.411 µg/mL).
CC[C@H](C)[C@H](NC(=O)[C@H](CCCNC(=N)N)NC(=O)[C@@H](N)CCCNC(=N)N)C(=O)N[C@@H](CCCCN)C(=O)N[C@@H](CCCCN)C(=O)N[C@@H](CCCNC(=N)N)C(=O)N1CCC[C@H]1C(=O)N1CCC[C@H]1C(=O)N[C@@H](CCCNC(=N)N)C(=O)N[C@@H](CC(C)C)C(=O)N1CCC[C@H]1C(=O)N[C@@H](CCCNC(=N)N)C(=O)N1CCC[C@H]1C(=O)N[C@@H](CCCNC(=N)N)C(=O)N1CCC[C@H]1C(=O)N[C@@H](CCCCN)C(=O)O [Bac_R4K/P5K/R16K] (H-RRIKKRPPRLPRPRPK-OH) gave an MIC (E. coli JW0013) of 0.060 ± 0.014 µM (≈ 0.123 µg/mL), an MIC (E. coli J2210) of 0.167 ± 0.061 µM (≈ 0.343 µg/mL) and an MIC (E. coli JJ2489) of 0.120 ± 0.028 µM (≈ 0.246 µg/mL). For the same molecule, the MIC [1] was 0.167 ± 0.061 µM (≈ 0.343 µg/mL) and the MIC [2] was 0.120 ± 0.028 µM (≈ 0.246 µg/mL).
With CC[C@H](C)[C@H](NC(=O)[C@H](CCCNC(=N)N)NC(=O)[C@@H](N)CCCNC(=N)N)C(=O)N[C@@H](CCCNC(=N)N)C(=O)N1CCC[C@H]1C(=O)N[C@@H](CCCNC(=N)N)C(=O)N1CCC[C@H]1C(=O)N1CCC[C@H]1C(=O)N[C@@H](CCCNC(=N)N)C(=O)N[C@@H](CC(C)C)C(=O)N1CCC[C@H]1C(=O)N[C@@H](CCCNC(=N)N)C(=O)N1CCC[C@H]1C(=O)N[C@@H](CCCNC(=N)N)C(=O)N1CCC[C@H]1C(=O)N[C@@H](CCCNC(=N)N)C(=O)O [Bac_WT, reference compound] (H-RRIRPRPPRLPRPRPR-OH) the MIC (E. coli J2210) was 0.120 ± 0.028 µM (≈ 0.249 µg/mL), the MIC (E. coli JJ2489) was 0.120 ± 0.028 µM (≈ 0.249 µg/mL) and the MIC [1] was 0.120 ± 0.028 µM (≈ 0.249 µg/mL). It also gave an MIC [2] of 0.060 ± 0.014 µM (≈ 0.125 µg/mL).
With CC[C@H](C)[C@H](NC(=O)[C@H](CCCNC(=N)N)NC(=O)[C@@H](N)CCCNC(=N)N)C(=O)N[C@@H](CCCNC(=N)N)C(=O)N[C@@H](CCCCN)C(=O)N[C@@H](CCCNC(=N)N)C(=O)N1CCC[C@H]1C(=O)N1CCC[C@H]1C(=O)N[C@@H](CCCNC(=N)N)C(=O)N[C@@H](CC(C)C)C(=O)N1CCC[C@H]1C(=O)N[C@@H](CCCNC(=N)N)C(=O)N1CCC[C@H]1C(=O)N[C@@H](CCCNC(=N)N)C(=O)N1CCC[C@H]1C(=O)N[C@@H](CCCCN)C(=O)O [Bac_P5K/R16K] (H-RRIRKRPPRLPRPRPK-OH) the MIC (E. coli JW0013) was 0.060 ± 0.014 µM (≈ 0.125 µg/mL), the MIC (E. coli J2210) was 0.157 ± 0.054 µM (≈ 0.326 µg/mL) and the MIC (E. coli JJ2489) was 0.120 ± 0.028 µM (≈ 0.25 µg/mL). It also gave an MIC [1] of 0.120 ± 0.028 µM (≈ 0.25 µg/mL) and an MIC [2] of 0.120 ± 0.028 µM (≈ 0.25 µg/mL).
For CC(C)C[C@H](NC(=O)[C@H](CCCNC(=N)N)NC(=O)[C@@H]1CCCN1C(=O)[C@H](CCCNC(=N)N)NC(=O)[C@@H]1CCCN1C(=O)[C@@H]1CCCN1C(=O)[C@H](CCCNC(=N)N)NC(=O)[C@@H]1CCCN1C(=O)[C@H](CCC(N)=O)NC(=O)[C@@H]1CCCN1C(=O)[C@H](CCCCN)NC(=O)[C@H](Cc1ccc(O)cc1)NC(=O)[C@@H](NC(=O)[C@@H]1CCCN1C(=O)[C@H](CCCCN)NC(=O)[C@H](CC(N)=O)NC(=O)[C@H](CC(N)=O)NC(=O)CN)C(C)C)C(=O)O [Api_R4K/I8K/H15R] (H-GNNKPVYKPQPRPPRPRL-OH), the MIC (E. coli JW0013) was 0.096 ± 0.023 µM (≈ 0.203 µg/mL), the MIC (E. coli J2210) was 0.267 ± 0.097 µM (≈ 0.565 µg/mL) and the MIC (E. coli JJ2489) was 0.252 ± 0.087 µM (≈ 0.533 µg/mL). For the same molecule, the MIC [1] was 0.133 ± 0.061 µM (≈ 0.281 µg/mL).
For CC[C@H](C)[C@H](NC(=O)[C@H](Cc1ccc(O)cc1)NC(=O)[C@@H](NC(=O)[C@@H]1CCCN1C(=O)[C@H](CCCCN)NC(=O)[C@H](CC(N)=O)NC(=O)[C@H](CC(N)=O)NC(=O)CN)C(C)C)C(=O)N1CCC[C@H]1C(=O)N[C@@H](CCC(N)=O)C(=O)N1CCC[C@H]1C(=O)N[C@@H](CCCNC(=N)N)C(=O)N1CCC[C@H]1C(=O)N1CCC[C@H]1C(=O)N[C@@H](CCCNC(=N)N)C(=O)N1CCC[C@H]1C(=O)N[C@@H](CCCNC(=N)N)C(=O)N[C@@H](CC(C)C)C(=O)O [Api_R4K/H15R] (H-GNNKPVYIPQPRPPRPRL-OH), the MIC (E. coli JW0013) was 0.048 ± 0.011 µM (≈ 0.101 µg/mL), the MIC (E. coli J2210) was 0.133 ± 0.061 µM (≈ 0.279 µg/mL) and the MIC (E. coli JJ2489) was 0.067 ± 0.033 µM (≈ 0.141 µg/mL). For the same molecule, the MIC [1] was 0.067 ± 0.033 µM (≈ 0.141 µg/mL) and the MIC [2] was 0.126 ± 0.052 µM (≈ 0.265 µg/mL).
CC(C)C[C@H](NC(=O)[C@H](CCCNC(=N)N)NC(=O)[C@@H]1CCCN1C(=O)[C@H](CCCNC(=N)N)NC(=O)[C@@H]1CCCN1C(=O)[C@@H]1CCCN1C(=O)[C@H](CCCNC(=N)N)NC(=O)[C@@H]1CCCN1C(=O)[C@H](CCC(N)=O)NC(=O)[C@@H]1CCCN1C(=O)[C@H](CCCNC(=N)N)NC(=O)[C@H](Cc1ccc(O)cc1)NC(=O)[C@@H](NC(=O)[C@@H]1CCCN1C(=O)[C@H](CCCNC(=N)N)NC(=O)[C@H](CC(N)=O)NC(=O)[C@H](CC(N)=O)NC(=O)CN)C(C)C)C(=O)O [Api_I8R/H15R] (H-GNNRPVYRPQPRPPRPRL-OH) was tested, and the MIC (E. coli JW0013) was 0.048 ± 0.011 µM (≈ 0.104 µg/mL) and the MIC [1] was 0.067 ± 0.033 µM (≈ 0.145 µg/mL).
In the case of CC[C@H](C)[C@H](NC(=O)[C@H](CCCNC(=N)N)NC(=O)[C@@H](N)CCCNC(=N)N)C(=O)N[C@@H](CCCCN)C(=O)N1CCC[C@H]1C(=O)N[C@@H](CCCNC(=N)N)C(=O)N1CCC[C@H]1C(=O)N1CCC[C@H]1C(=O)N[C@@H](CCCNC(=N)N)C(=O)N[C@@H](CC(C)C)C(=O)N1CCC[C@H]1C(=O)N[C@@H](CCCNC(=N)N)C(=O)N1CCC[C@H]1C(=O)N[C@@H](CCCNC(=N)N)C(=O)N1CCC[C@H]1C(=O)N[C@@H](CCCCN)C(=O)O [Bac_R4K/R16K] (H-RRIKPRPPRLPRPRPK-OH), the MIC (E. coli JW0013) is reported as 0.060 ± 0.014 µM (≈ 0.121 µg/mL), the MIC (E. coli J2210) is reported as 0.120 ± 0.028 µM (≈ 0.242 µg/mL) and the MIC (E. coli JJ2489) is reported as 0.120 ± 0.028 µM (≈ 0.242 µg/mL). The MIC [1] was 0.157 ± 0.054 µM (≈ 0.317 µg/mL) and the MIC [2] was 0.120 ± 0.028 µM (≈ 0.242 µg/mL).
CC[C@H](C)[C@H](NC(=O)[C@H](CCCNC(=N)N)NC(=O)[C@@H](N)CCCNC(=N)N)C(=O)N[C@@H](CCCCN)C(=O)N[C@@H](CCCCN)C(=O)N[C@@H](CCCNC(=N)N)C(=O)N1CCC[C@H]1C(=O)N1CCC[C@H]1C(=O)N[C@@H](CCCNC(=N)N)C(=O)N[C@@H](CC(C)C)C(=O)N1CCC[C@H]1C(=O)N[C@@H](CCCNC(=N)N)C(=O)N1CCC[C@H]1C(=O)N[C@@H](CCCNC(=N)N)C(=O)N1CCC[C@H]1C(=O)N[C@@H](CCCNC(=N)N)C(=O)O [Bac_R4K/P5K] (H-RRIKKRPPRLPRPRPR-OH) showed an MIC (E. coli JW0013) of 0.060 ± 0.014 µM (≈ 0.125 µg/mL), an MIC (E. coli J2210) of 0.157 ± 0.054 µM (≈ 0.326 µg/mL) and an MIC (E. coli JJ2489) of 0.120 ± 0.028 µM (≈ 0.25 µg/mL). It also gave an MIC [1] of 0.120 ± 0.028 µM (≈ 0.25 µg/mL) and an MIC [2] of 0.120 ± 0.028 µM (≈ 0.25 µg/mL).
